# Data reported in patent US6545051B1, “Antibacterial hydroxamic acid derivatives” (British Biotech Pharmaceuticals, Ltd., priority 1999, dated 2003).
# Experiments:
# [1] = test system: Staphylococcus capitis (American Type Culture Collection number 35661); experiment: Minimal inhibitory concentration (MIC) against Staphylococcus capitis; type: cell-based; settings: 2×YT broth, 37° C., 18 hours, lowest drug concentration that inhibited visible growth
# Description: Minimal inhibitory concentrations (MIC) of inhibitors against E. coli strain DH5α (Genotype; F-φ80dlacZΔM 15Δ(lacZYA-argF)U 169 deoR recA1 endA1 hsdR17(rk^−, mk^+)phoA supE44λ^−thi-1 gyrA96 relA1) obtained from GibcoBRL Life Technologies, or Staphylococcus capitis (American Type Culture Collection number 35661) were determined as follows. Stock solutions of each test compound were prepared by dissolution of the compound in dimethylsulfoxide at 10 mM. For the determination of the minimal inhibitory concentration, two fold serial dilutions were prepared in 2×YT broth (typtone 16 g/1, yeast extract 10 g/1, sodium chloride 5 g/1 obtained from BIO 101 Inc, 1070 Joshua Way, Vista, Calif. 92083, USA) to yield 0.05 ml compound-containing medium per well. Inocula were prepared from cultures grown overnight in 2×YT broth at 37° C. Cell densities were adjusted to absorbance at 660 nm (A660)=0.1; the optical density-standardized preparations were diluted 1:1000 in 2×YT broth; and each well inoculated with 0.05 ml of the diluted bacteria. Microtiter plates were incubated at 37° C. for 18 hours in a humidified incubator. The MIC (μM) was recorded as the lowest drug concentration that inhibited visible growth.
SMILES,MIC [1] [µM],melting point [°C]
CCCCCC[C@H](CC(=O)NO)C(=O)N[C@@H](Cc1ccccc1)C(=O)OC(C)C,100,
CCOC(=O)[C@@H](NC(=O)[C@H](CC(C)C)[C@H](C)C(=O)NO)C(C)(C)C [Example 2],,198 to 203
